# Data published in PMC11609934, “Exploration and characterization of the antimalarial activity of cyclopropyl carboxamides that target the mitochondrial protein, cytochrome b” (European Journal of Medicinal Chemistry, 2024).
# pEC50: −log10 of the molar value.
# Columns and labels:
# [1] = test system: P. berghei ANKA parasites; assay: P. berghei 4-day mouse model; format: in vivo, Plasmodium berghei; conditions: for % parasitemia / % reduction in parasitemia: mice, day 4, oral gavage q.d. x4, 50 mg/kg (ART 30 mg/kg); for % reduction in parasitemia: versus vehicle control
# Experimental: The 4-day P. berghei mouse model is used to determine the preliminary in vivo efficacy of antimalarials at an early stage of optimization. To determine if cyclopropyl carboxamide series could reduce asexual blood stage infection, we evaluated representative compounds WJM280 (108) and analog 109 in the 4-day P. berghei mouse model. In this model, mice were infected P. berghei asexual stage parasites, and then 2 h after the infection, WJM280 (108) and analog 109 at 50 mg/kg and artesunate at 30 mg/kg were administered by oral gavage. The same compound doses were administered again, 24, 48, and 72 h post infection. Parasitemia was then quantified by preparing blood smears and visualizing by microscopy across days 2, 3, and 4. […] The inability of these compounds to reduce parasitemia was attributed to their high metabolic turnover, which is a characteristic that needs improving on further development of the cyclopropyl carboxamide class.
# P. berghei 4-day Mouse Model. This model was conducted as previously described.
# [2] = test system: P. falciparum 3D7 parasites; assay: P. falciparum 3D7 asexual stage LDH assay (72 h); format: cell-based, Plasmodium falciparum; conditions: Plasmodium falciparum, 3D7, 72 h, LDH activity of P. falciparum 3D7 parasites over 72 h; means and SDs, three or more experiments; read-out: Pf 3D7 EC50 (SD)
# Experimental: To establish the SAR, synthesized analogs were assessed against the asexual stage parasite (72 h) using LDH as a proxy for parasite growth inhibition. Cytotoxicity was monitored against the human HepG2 cell line using Cell TitreGlo as a metabolic marker for cell growth.
# P. falciparum 3D7 Asexual Stage LDH Assay. This is a platform assay is routinely undertaken at the Walter and Eliza Hall Institute and details on the protocol has been previously published. Briefly, 10-point dilution series of the compounds were prepared in 384 well assay plates using an Echo555 (Labcyte). Appropriate volumes of 10 mM compound stocks were transferred into the assay plates such that the starting concentration was 1 μM, with a 1 in 3-fold dilution series. All wells were backfilled with DMSO to 40 nL such that this remained constant (0.1 % DMSO). The positive growth control was 0.1 % DMSO and the negative growth control was 100 nM chloroquine. The parasite inoculum (40 μL) was dispensed into plates containing compounds using a Multidrop Combi dispenser (Thermo Scientific). […] Following 72 h growth, plates were sealed with parafilm and frozen at −80 °C overnight. Plates were thawed at room temperature for at least 4 h prior to LDH activity being measured. […] Plates were shaken to ensure mixing and absorbance at 650 nm was measured in an EnVision (PerkinElmer) plate reader after 30 min of incubation at room temperature. […] The equation used is sigmoidal dose response (variable slope), Y = bottom + (top − bottom)/(1 + 10((logEC50 − X) × Hill Slope)).
# [3] = Human HepG2 growth inhibition assay (Cell TitreGlo, 48 h); format: cell-based; conditions: human, HepG2 cells, HepG2 cell growth inhibition over 48 h
# Experimental: To establish the SAR, synthesized analogs were assessed against the asexual stage parasite (72 h) using LDH as a proxy for parasite growth inhibition. Cytotoxicity was monitored against the human HepG2 cell line using Cell TitreGlo as a metabolic marker for cell growth. Cyt b inhibitors typically have high lipophilicity, and so calculated physicochemical properties were determined, while in vitro ADME was also collected on representative analogs to gauge their suitability for efficacy studies in a 4-day P. berghei model.
# Human HepG2 Growth Inhibition Assay. This is a routine assay undertaken at the Walter and Eliza Hall Institute and the method has been previously published. HepG2 cells were cultured in Dulbeccos modified eagles medium (DMEM) supplemented with 10 % fetal calf serum (FCS), in a humidified incubator at 37 °C and 5 % CO2. Assay plates (Greiner #781098, 384 well, white, tissue culture treated) were prepared by transferring appropriate volumes of 10 mM compound stocks using an Echo555 (Labcyte) such that the starting concentration was 50 μM, with a 1:2-fold dilution series. All wells were backfilled with DMSO to […] such that this remained constant (0.5 % DMSO). The positive growth control was 0.5 % DMSO and the negative growth control was 10 μM Bortezomib. HepG2 cells were seeded with 1000 cells in 50 μL DMEM with 10 % FCS into each well of the assay plates using a Multidrop Combi dispenser (Thermo Scientific). Plates were incubated at 37 °C and 5 % CO2 for 48 h. Cytotoxicity was determined using Cell Titer Glo (Promega) and calculated as a percentage using DMSO as the positive growth control and 10 μM Bortezomib as a negative growth control. EC50 values were calculated by Dotmatics 5.3 and Spotfire 7.11.1 software using a nonlinear regression four-parameter fit analysis. The equation used is sigmoidal dose response (variable slope), Y = bottom + (top − bottom)/(1 + 10((logEC50 − X) × Hill Slope)).
# [4] = eLogD (shake-flask, pH 7.4); format: physicochemical; conditions: 1-octanol/phosphate buffered saline (1:1, v/v), Shake-flask method
# Experimental: eLogD. The LogD (pH 7.4) assay was performed using a miniaturized shake flask method. A solution of a pre-saturated mixture of 1-octanol and phosphate buffered saline (PBS) (1:1, v/v) and the test compound (75 μM) was incubated at 25 °C with constant shaking (850 rpm) for 2 h. After incubation the organic and aqueous phases were separated, and samples of each phase transferred to plate for dilution. The organic phase was diluted to 1000-fold and the aqueous phase was diluted 20-fold. The samples were quantitated using LC-MS/MS. The experiment was carried out in duplicate. Propranolol, amitriptyline, and midazolam were used as reference standards.
# [5] = Human liver microsome stability; format: in vitro ADME; conditions: pooled human liver microsomes
# Experimental: Human Liver Microsome Stability. A solution of the test compounds in phosphate buffer solution (1 μM) was incubated in pooled human liver microsomes (0.5 mg/mL) for 0, 5, 20, 30, 45 and 60 min at 37 °C in the presence and absence of NADPH regeneration system. The reaction was terminated with the addition of ice-cold acetonitrile containing system suitability standard at designated time points. […] The experiment was carried out in duplicate. Verapamil, diltiazem, phenacetin, and imipramine were used as reference standards.
# Rat hepatocyte stability = format: in vitro ADME; conditions: pooled rat hepatocytes
# Experimental: Rat Hepatocyte Stability. A solution of the test compound in Krebs-Henseliet buffer solution (1 μM) was incubated in pooled rat hepatocytes (1 × 10^6 cells/mL) for 0, 15,30,45, 60, 75 and 90 min at 37 °C (5 % CO2, 95 % relative humidity). The reaction was terminated with the addition of ice-cold acetonitrile containing system suitability standard at designated time points. […] The experiment was carried out in duplicate. Diltiazem, 7-ethoxy coumarin, propranolol, and midazolam were used as reference standards.
# [6] = Aqueous solubility (kinetic in PBS, pH 7.4); format: physicochemical; conditions: phosphate buffered saline
# Experimental: Solubility. The solubility assay was performed using a miniaturized shake flask method. A solution of phosphate buffered saline (PBS) and the test compound (200 μM) was incubated at 25 °C with constant shaking (600 rpm) for 2 h. The samples were filtered using a multiscreen solubility filter plate. The filtrate was half diluted in acetonitrile. A five-point linearity curve was prepared in PBS:acetonitrile (1:1, v/v) at 200, 150, 75, 25 and 2.5 μM. Blank, linearity and test samples (n = 2) were transferred to a UV readable plate and the plate was scanned for absorbance. Best fit calibration curves were constructed using the calibration standards and used to determine the test sample solubility. The experiment was carried out in duplicate. Diethylstilbestrol, haloperidol, and diclofenac sodium were used as reference standards.
Compound,% parasitemia [1],% reduction in parasitemia [1],pEC50 [2],CC50 at 48 h [3],logD at 2 h [4],"microsomal CLint at 1 h, 1 µM [5]",hepatocyte CLint at 1 μM (Rat hepatocyte stability),solubility at 2 h [6],"body weights of mice ([1]; 50 mg/kg q.d. oral, 4 days)","hepatocyte CLint at 1.5 h, 1 µM (Rat hepatocyte stability)"
"C[C@H]1[C@H](OC(=O)CCC(=O)O)O[C@@H]2O[C@@]3(C)CC[C@H]4[C@H](C)CC[C@@H]1[C@@]24OO3 [ART, artesunate, reference compound]",2.3%,97.7%,–,–,–,–,–,–,–,–
"O=C(NC1CC1)c1ccc(CN(Cc2ccccc2)C2CC2)cc1 [Compound 17, 4-((Benzyl(cyclopropyl)amino)methyl)-N-cyclopropylbenzamide]",–,–,6.85,> 40 µM,4,72 µL/min/mg,> 92 µL/min/1e6 cells,44 µM,–,–
"CC(C)N(Cc1ccccc1)Cc1ccc(C(=O)NC2CC2)cc1 [Compound 21, 4-((Benzyl(isopropyl)amino)methyl)-N-cyclopropylbenzamide]",–,–,6.80,> 40 µM,3.5,76 µL/min/mg,> 92 µL/min/1e6 cells,140 µM,–,–
"O=C(NC1CC1)c1ccc(CN(Cc2ccccc2)C2CCC2)cc1 [Compound 22, 4-((Benzyl(cyclobutyl)amino)methyl)-N-cyclopropylbenzamide]",–,–,6.80,> 40 µM,3.8,151 µL/min/mg,> 92 µL/min/1e6 cells,92 µM,–,–
"O=C(NC1CC1)c1ccc(CN(Cc2ccccc2)CC(F)(F)F)cc1 [Compound 25, 4-((Benzyl(2,2,2-trifluoroethyl)amino)methyl)-N-cyclopropylbenzamide]",–,–,6.59,> 40 µM,4.8,79 µL/min/mg,> 92 µL/min/1e6 cells,11 µM,–,–
"CCCN(Cc1ccccc1)Cc1ccc(C(=O)NC2CC2)cc1 [Compound 26, 4-((Benzyl(propyl)amino)methyl)-N-cyclopropylbenzamide]",–,–,6.89,> 40 µM,3.7,98 µL/min/mg,> 92 µL/min/1e6 cells,83 µM,–,–
"CC(c1ccccc1)N(Cc1ccc(C(=O)NC2CC2)cc1)C1CC1 (stereo not drawn) [Compound 97, N-Cyclopropyl-4-((cyclopropyl(1-phenylethyl)amino)methyl)benzamide]",–,–,6.77,> 40 µM,4.2,238 µL/min/mg,> 92 µL/min/1e6 cells,22 µM,–,–
"O=C(NC1CC1)c1ccc(CN(Cc2ccccc2)C2CC2)nc1 [Compound 104, 6-((Benzyl(cyclopropyl)amino)methyl)-N-cyclopropylnicotinamide]",–,–,5.46,> 40 µM,–,–,–,–,–,–
"O=C(NC1CC1)c1cnc(CN(Cc2ccccc2)C2CC2)s1 [Compound 105, 2-((Benzyl(cyclopropyl)amino)methyl)-N-cyclopropylthiazole-5-carboxamide]",–,–,5.62,> 40 µM,–,–,–,–,–,–
"CCCN(Cc1ccc(C(=O)NC2CC2)cc1)Cc1cc(C(F)(F)F)cc(C(F)(F)F)c1 [Compound 109, 4-(((3,5-Bis(trifluoromethyl)benzyl) (propyl)amino)methyl)-N-cyclopropylbenzamide]",91%,9%,7.52,10 µM,5,65 µL/min/mg,–,2.5 µM,slightly reduced,60 µL/min/1e6 cells
